Measured values published in patent publication US7723021B2, “Methods for treating lentivirus infections” (The J. David Gladstone Institutes, priority 2003, dated 2010).
Entries after “also recorded” stand apart in the source; their conditions may differ. Residues, ends and D or L forms follow the SMILES beside them. *: point of attachment. Cbz = O=C(OCc1ccccc1)*

Legend:
[1] = tested on: Vif-mediated depletion of APOBEC3G-HA in 293T cells; experiment: Proteasome inhibitor panel in 293T cells transiently transfected with APOBEC3G-HA and Vif, immunoblot; assay type: cell-based; conditions: 12.5 μM, 15 hours
Protocol: 293T cells were transfected with the indicated amounts of expression vector DNA using the calcium phosphate method. Lysis buffers used for immunoblotting were (1) 100-400 mM NaCl, 50 mM Hepes, 0.2% NP40, 0-5 mM EDTA, 0.1 mM PMSF, plus complete protease inhibitor cocktail (Roche)(1 tablet/50 ml buffer) or (2) 50 mM Hepes, pH 7.2, 135 mM NaCl, 1% Triton X-100, 0.5% deoxycholate, 10% glycerol, 1 mM EDTA, 1× protease inhibitor cocktail (Calbiochem). Samples were analyzed using standard SDS-PAGE techniques.
For the proteasome inhibitor experiments in transiently transfected cells, 293T cells were transiently transfected with 0.1 μg of APOBEC3G-HA DNA, 2 μg of control vector DNA and 2 μg of either pcDNA3.1 Vif DNA vector or an additional 2 μg of control vector DNA. Twenty-four hours after transfection, the cells were treated with the indicated inhibitor and harvested 15 hours later. For the proteasome inhibitor experiments using infected H9 cells, H9 cells were infected by spinoculation as described above. Forty-four hours after infection, the cells were treated for 16 hours with either dimethylsulfoxide (DMSO) (0.1%) or 0.25 μM epoxomicin. All of the inhibitors (ALLN, MG132, epoxomicin, Calpain Inhibitor III, and clasto-Lactacystin-β-Lactone) were purchased from CalBiochem and were dissolved in DMSO.
To confirm this finding in a different system, a similar experiment was performed using 293T cells transiently transfected with an APOBEC3G-HA expression vector and either a Vif expression vector or a control vector. Twenty-four hours after transfection the cells were treated with a panel of different proteasome inhibitors for a 15-hour period. It was observed that the broadly acting proteasome inhibitors MG132 (12.5 μM) and ALLN (25 μM) as well as the more specific proteasome inhibitor clasto-Lactacystin-β-Lactone ([…], 20 μM) enhanced the levels of APOBEC3G-HA in the presence of Vif when compared to the diluent control sample (0.1% DMSO) (FIG. 8C, lanes 7 through 12).
FIG. 8A-C. Vif shortens the half-life of APOBEC3G, and proteasome inhibitors partially block the intracellular depletion of APOBEC3G-HA. (A) Pulse-Chase Radiolabeling. HEK 293 cells transiently transfected with APOBEC3G-HA and Vif or control vector DNA were pulse-labeled for 30 min. The initial pulse-labeled (t=0) samples were harvested, and the remaining samples were incubated with chase media for the indicated time points. After immunoprecipitation with anti-HA antibody, the samples were analyzed by SDS-PAGE and the gels were subjected to autoradiography. The relative intensity of the bands were quantified and the Vif (+) and Vif (−) samples were normalized to 1 and graphed (FIG. 8, right side). The T1/2 of APOBEC3G was 1.9 hours in the presence of Vif and 10 hours in the absence of Vif. (B) Proteasome inhibitor studies using infected H9 cells. Mock or HIV-1 wt-infected H9 cells were treated with the broadly active proteasome inhibitor epoxomicin (0.25 μM) or DMSO (0.1%) 44 hours after infection. Sixteen hours following treatment, the cells were harvested; and whole cell lysates were prepared by boiling the cells in Laemmli lysis buffer. Note that Epoxomicin caused an increase in endogenous APOBEC3G levels in the infected sample (compare lane 2 with lane 1). (C) Proteasome inhibitor studies using transiently-transfected 293T cells. Twenty-four hours following transfection of 293T cells with 0.1 μg APOBEC3G and 2 μg Vif or control vector DNA, the cells were treated with the indicated concentration of inhibitor for 15 hours. APOBEC3G-HA levels were elevated in the presence of the proteasome inhibitors MG132, ALLN, and clasto-lactacystin-β-lactone (lanes 8-11), but not in the presence of calpain inhibitor III (lane 12).

[2] = tested on: Vif-mediated degradation of APOBEC3G (luc-APOBEC3G); experiment: Vif/luc-APOBEC3G HeLa cell line luciferase assay; assay type: cell-based
Source text: The following is one non-limiting example of a suitable assay for identifying agents that reduce Vif-induced degradation of APOBEC3G. Mammalian cells (e.g., an immortalized cell line) are stably transfected with an expression vector that includes a coding sequence for a luciferase-APOBEC3G fusion protein, such that the cells synthesize the luciferase-APOBEC3G (luc-APOBEC3G) fusion protein. A substrate for luciferase is provided in the cell medium, such that the substrate enters the cell, and is acted on by the luciferase portion of the luciferase-APOBEC3G to yield a luminescent product. The level of luciferase in the cell is detected using a luminometer, and the level of luc-APOBEC3G is expressed as relative light units. The cells are transfected with an expression vector that includes a coding sequence for Vif to yield a Vif/luc-APOBEC3G cell. Because Vif induces degradation of luc-APOBEC3G, the presence of Vif protein in the Vif/luc-APOBEC3G cell reduces the level of luc-APOBEC3G, compared to the level of luc-APOBEC3G in the absence of Vif. When the Vif/luc-APOBEC3G cell is contacted with a test agent that reduces Vif-induced APOBEC3G degradation, the level of luc-APOBEC3G increases relative to the level of luc-APOBEC3G in the Vif/luc-APOBEC3G cell in the absence of the test agent.
Several cell lines were constructed that could serve as the basis for a high-throughput assay for inhibitors of HIV-1 Vif action. The cell lines produce Vif and an APOBEC3G fusion protein composed of APOBEC3G fused to a heterologous protein that provides a detectable signal. One such cell line was constructed as follows. HeLa cells were co-transfected with both a Vif expression vector and a vector expressing APOBEC3G tagged with renilla-luciferase (luc-APOBEC3G), to generate a Vif/luc-APOBEC3G cell line. […]
The Vif/luc-APOBEC3G cell line was treated with the proteasome inhibitor MG132, an agent capable of blocking Vif-mediated degradation of APOBEC3G, and the cells were subsequently lysed. […] The level of luc-APOBEC3G was expressed as relative light units (RLU). […]

CC(C)C[C@@H](C=O)NC(=O)[C@H](CC(C)C)NC(=O)[C@H](CC(C)C)NC(=O)OCc1ccccc1 [MG132] (Cbz-Leu-Leu-Leu-aldehyde)
levels of APOBEC3G-HA in the presence of Vif compared to diluent control (0.1% DMSO) [1]: enhanced; also recorded: elevated
Vif-caused reduction in the level of luc-APOBEC3G protein ([2]; Vif/luc-APOBEC3G cells): reversed
reduction of RLU in the absence of the proteasome inhibitor relative to MG132-treated cells ([2]; Vif/luc-APOBEC3G cells): approximately 20 fold
level of luc-APOBEC3G in cell lysate ([2]; Vif/luc-APOBEC3G cells treated with MG132): 203333 RLU
